Measurements taken from ChEMBL document CHEMBL1795227, “Methanesulfonamido-cyclohexylamine derivatives of 2,4-diaminopyrimidine as potent ALK inhibitors” (Bioorg Med Chem Lett, 2011).
Values belong to the compound of their own block, whether it stands above or below them. The source made the active and inactive calls. The calls are words filed in the database; no cut-off is given here.

Tests used:
[1] = biological target: Fibroblast growth factor receptor 2 (Homo sapiens) (UniProt P21802); assay: Inhibition of FGFR2 at 1 uM
[2] = biological target: Insulin-like growth factor 1 receptor (Homo sapiens) (UniProt P08069); assay: Inhibition of IGF1R at 1 uM
Insulin receptor = Insulin receptor (Homo sapiens, UniProt P06213); assay: Inhibition of INSR at 1 uM
[3] = biological target: Mitogen-activated protein kinase 8 (Homo sapiens) (UniProt P45983); assay: Inhibition of JNK1 at 1 uM
[4] = biological target: Mitogen-activated protein kinase 10 (Homo sapiens) (UniProt P53779); assay: Inhibition of JNK3 at 1 uM
[5] = biological target: Mast/stem cell growth factor receptor Kit (Homo sapiens) (UniProt P10721); assay: Inhibition of KIT at 1 uM
[6] = biological target: Mitogen-activated protein kinase 12 (Homo sapiens) (UniProt P53778); assay: Inhibition of p38 gamma at 1 uM
[7] = biological target: 3-phosphoinositide-dependent protein kinase 1 (Homo sapiens) (UniProt O15530); assay: Inhibition of PDPK1 at 1 uM
[8] = biological target: Serine/threonine-protein kinase PLK1 (Homo sapiens) (UniProt P53350); assay: Inhibition of PLK1 at 1 uM
[9] = biological target: Protein kinase C eta type (Homo sapiens) (UniProt P24723); assay: Inhibition of PRKCH at 1 uM
[10] = biological target: Vascular endothelial growth factor receptor 2 (Homo sapiens) (UniProt P35968); assay: Inhibition of VEGFR2 at 1 uM
[11] = Half life in Sprague-Dawley rat at 1 mg/kg, iv; format: ADME, organism-based; design: dose 1 mg/kg, route intravenous; conditions: in vivo
[12] = AUC (0 to t) in Sprague-Dawley rat at 1 mg/kg, iv; format: ADME, organism-based; design: dose 1 mg/kg, route intravenous; conditions: plasma
[13] = Volume of distribution in Sprague-Dawley rat at 1 mg/kg, iv; format: ADME, organism-based; design: dose 1 mg/kg, route intravenous; conditions: in vivo
[14] = Clearance in Sprague-Dawley rat at 1 mg/kg, iv; format: ADME, organism-based; design: dose 1 mg/kg, route intravenous; conditions: in vivo
[15] = Cmax in Sprague-Dawley rat at 5 mg/kg, po; format: ADME, organism-based; design: dose 5 mg/kg, route oral; conditions: in vivo
[16] = Tmax in Sprague-Dawley rat at 5 mg/kg, po; format: ADME, organism-based; design: dose 5 mg/kg, route oral; conditions: in vivo
[17] = AUC (0 to t) in Sprague-Dawley rat at 5 mg/kg, po; format: ADME, organism-based; design: dose 5 mg/kg, route oral; conditions: plasma
[18] = Oral bioavailability in Sprague-Dawley rat at 5 mg/kg; format: ADME, organism-based; conditions: in vivo
[19] = Half life in CD1 mouse at 1 mg/kg, iv; format: ADME, organism-based; design: dose 1 mg/kg, route intravenous; conditions: in vivo
[20] = AUC (0 to t) in CD1 mouse at 1 mg/kg, iv; format: ADME, organism-based; design: dose 1 mg/kg, route intravenous; conditions: plasma
[21] = Volume of distribution in CD1 mouse at 1 mg/kg, iv; format: ADME, organism-based; design: dose 1 mg/kg, route intravenous; conditions: in vivo
[22] = Clearance in CD1 mouse at 1 mg/kg, iv; format: ADME, organism-based; design: dose 1 mg/kg, route intravenous; conditions: in vivo
[23] = Cmax in CD1 mouse at 10 mg/kg, po; format: ADME, organism-based; design: dose 10 mg/kg, route oral; conditions: in vivo
[24] = Tmax in CD1 mouse at 10 mg/kg, po; format: ADME, organism-based; design: dose 10 mg/kg, route oral; conditions: in vivo
[25] = Half life in CD1 mouse at 10 mg/kg, po; format: ADME, organism-based; design: dose 10 mg/kg, route oral; conditions: in vivo
[26] = AUC (0 to t) in CD1 mouse at 10 mg/kg, po; format: ADME, organism-based; design: dose 10 mg/kg, route oral; conditions: plasma
[27] = Oral bioavailability in CD1 mouse at 10 mg/kg; format: ADME, organism-based; conditions: in vivo
Mus musculus [28] = assay: Inhibition of NPM-ALK autophosphorylation in Karpas-299 cells xenografted mouse at 30 mg/kg, po administered as single dose measured after 2 hrs; format: functional; conditions: KARPAS-299, 2 h
Mus musculus [29] = assay: Inhibition of NPM-ALK autophosphorylation in Karpas-299 cells xenografted mouse at 30 mg/kg, po administered as single dose measured after 6 hrs; format: functional, organism-based; design: dose 30 mg/kg
KARPAS-299 [30] = assay: Antitumor activity against human KARPAS299 cells xenografted in mouse assessed as tumor growth inhibition at 30 mg/kg, po bid; format: functional; conditions: read-out: GI
KARPAS-299 [31] = assay: Antitumor activity against human KARPAS299 cells xenografted in mouse assessed as tumor growth inhibition at 55 mg/kg, po bid; format: functional; conditions: read-out: GI
Mus musculus [32] = assay: Toxicity in mouse assessed as overt signs at 30 mg/kg, po bid; format: organism-based; design: dose 30 mg/kg, route oral; conditions: in vivo
Mus musculus [33] = assay: Toxicity in mouse assessed as overt signs at 55 mg/kg, po bid; format: organism-based; design: dose 55 mg/kg, route oral; conditions: in vivo
Mus musculus [34] = assay: Toxicity in mouse assessed as body weight loss at 30 mg/kg, po bid; format: organism-based; design: dose 30 mg/kg, route oral; conditions: in vivo
Mus musculus [35] = assay: Toxicity in mouse assessed as body weight loss at 55 mg/kg, po bid; format: organism-based; design: dose 55 mg/kg, route oral; conditions: in vivo
[36] = Plasma concentration in Karpas-299 cells xenografted mouse at 30 mg/kg, po administered as single dose measured after 2 hrs; format: ADME, organism-based; design: dose 30 mg/kg, route oral
[37] = Plasma concentration in Karpas-299 cells xenografted mouse at 30 mg/kg, po administered as single dose measured after 6 hrs; format: ADME, organism-based; design: dose 30 mg/kg, route oral
[38] = Plasma concentration in Karpas-299 cells xenografted mouse at 30 mg/kg, po administered as single dose measured after 12 hrs; format: ADME, organism-based; design: dose 30 mg/kg, route oral
[39] = Drug level in tumor of Karpas-299 cells xenografted mouse at 30 mg/kg, po administered as single dose measured after 2 hrs; format: ADME, organism-based, Neoplasm; design: dose 30 mg/kg, route oral; conditions: read-out: Drug uptake
[40] = Drug level in tumor of Karpas-299 cells xenografted mouse at 30 mg/kg, po administered as single dose measured after 6 hrs; format: ADME, organism-based, Neoplasm; design: dose 30 mg/kg, route oral; conditions: read-out: Drug uptake
[41] = Drug level in tumor of Karpas-299 cells xenografted mouse at 30 mg/kg, po administered as single dose measured after 12 hrs; format: ADME, organism-based, Neoplasm; design: dose 30 mg/kg, route oral; conditions: read-out: Drug uptake
[42] = biological target: Activin receptor type-1 (Homo sapiens) (UniProt Q04771); assay: Inhibition of ACVR1 at 1 uM
[43] = biological target: RAC-beta serine/threonine-protein kinase (Homo sapiens) (UniProt P31751); assay: Inhibition of AKT2 at 1 uM
[44] = biological target: Tyrosine-protein kinase BTK (Homo sapiens) (UniProt Q06187); assay: Inhibition of BTK at 1 uM
[45] = biological target: Macrophage colony-stimulating factor 1 receptor (Homo sapiens) (UniProt P07333); assay: Inhibition of CSF1R at 1 uM
[46] = biological target: Receptor tyrosine-protein kinase erbB-4 (Homo sapiens) (UniProt Q15303); assay: Inhibition of ERBB4 at 1 uM
[47] = biological target: Fibroblast growth factor receptor 4 (Homo sapiens) (UniProt P22455); conditions: 1 uM
Fibroblast growth factor receptor 4 (Homo sapiens), sequence (P22455 22-802 limits assumed): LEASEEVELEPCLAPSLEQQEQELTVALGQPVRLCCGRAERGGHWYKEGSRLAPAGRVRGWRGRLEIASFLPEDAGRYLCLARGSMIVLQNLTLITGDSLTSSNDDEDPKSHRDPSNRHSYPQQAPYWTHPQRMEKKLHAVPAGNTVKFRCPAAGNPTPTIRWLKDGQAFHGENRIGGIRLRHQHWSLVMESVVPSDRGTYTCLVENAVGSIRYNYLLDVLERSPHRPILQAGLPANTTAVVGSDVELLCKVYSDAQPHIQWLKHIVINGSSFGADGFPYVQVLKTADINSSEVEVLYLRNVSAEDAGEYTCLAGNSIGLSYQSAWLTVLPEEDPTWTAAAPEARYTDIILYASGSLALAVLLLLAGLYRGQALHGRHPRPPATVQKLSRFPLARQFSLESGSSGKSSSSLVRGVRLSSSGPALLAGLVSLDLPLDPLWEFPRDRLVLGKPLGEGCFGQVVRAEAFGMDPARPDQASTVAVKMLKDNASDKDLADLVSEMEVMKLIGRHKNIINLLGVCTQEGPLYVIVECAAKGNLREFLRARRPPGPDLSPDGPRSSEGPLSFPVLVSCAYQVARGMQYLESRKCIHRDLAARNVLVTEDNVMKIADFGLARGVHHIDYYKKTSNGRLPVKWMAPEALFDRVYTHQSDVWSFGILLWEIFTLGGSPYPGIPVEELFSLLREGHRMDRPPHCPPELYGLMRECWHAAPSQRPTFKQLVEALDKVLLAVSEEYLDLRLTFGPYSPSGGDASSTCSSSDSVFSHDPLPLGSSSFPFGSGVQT
Description: Inhibition of FGFR4 at 1 uM

3-phosphoinositide-dependent protein kinase 1 (Homo sapiens), sequence (O15530 whole entry): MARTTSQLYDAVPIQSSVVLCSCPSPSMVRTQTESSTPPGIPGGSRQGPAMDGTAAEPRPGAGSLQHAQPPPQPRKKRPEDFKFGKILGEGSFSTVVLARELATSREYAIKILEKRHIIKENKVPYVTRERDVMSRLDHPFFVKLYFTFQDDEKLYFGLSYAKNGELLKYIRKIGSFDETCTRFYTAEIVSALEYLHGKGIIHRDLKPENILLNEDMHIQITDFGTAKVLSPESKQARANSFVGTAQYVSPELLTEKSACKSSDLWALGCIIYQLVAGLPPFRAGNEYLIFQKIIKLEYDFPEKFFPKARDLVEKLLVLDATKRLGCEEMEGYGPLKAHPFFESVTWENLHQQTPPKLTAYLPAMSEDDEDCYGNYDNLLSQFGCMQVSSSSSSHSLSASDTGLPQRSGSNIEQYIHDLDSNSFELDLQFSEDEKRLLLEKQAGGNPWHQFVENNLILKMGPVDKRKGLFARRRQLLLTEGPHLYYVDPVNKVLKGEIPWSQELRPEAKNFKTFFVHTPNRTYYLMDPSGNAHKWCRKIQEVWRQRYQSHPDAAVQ
Vascular endothelial growth factor receptor 2 (Homo sapiens), sequence (P35968 whole entry): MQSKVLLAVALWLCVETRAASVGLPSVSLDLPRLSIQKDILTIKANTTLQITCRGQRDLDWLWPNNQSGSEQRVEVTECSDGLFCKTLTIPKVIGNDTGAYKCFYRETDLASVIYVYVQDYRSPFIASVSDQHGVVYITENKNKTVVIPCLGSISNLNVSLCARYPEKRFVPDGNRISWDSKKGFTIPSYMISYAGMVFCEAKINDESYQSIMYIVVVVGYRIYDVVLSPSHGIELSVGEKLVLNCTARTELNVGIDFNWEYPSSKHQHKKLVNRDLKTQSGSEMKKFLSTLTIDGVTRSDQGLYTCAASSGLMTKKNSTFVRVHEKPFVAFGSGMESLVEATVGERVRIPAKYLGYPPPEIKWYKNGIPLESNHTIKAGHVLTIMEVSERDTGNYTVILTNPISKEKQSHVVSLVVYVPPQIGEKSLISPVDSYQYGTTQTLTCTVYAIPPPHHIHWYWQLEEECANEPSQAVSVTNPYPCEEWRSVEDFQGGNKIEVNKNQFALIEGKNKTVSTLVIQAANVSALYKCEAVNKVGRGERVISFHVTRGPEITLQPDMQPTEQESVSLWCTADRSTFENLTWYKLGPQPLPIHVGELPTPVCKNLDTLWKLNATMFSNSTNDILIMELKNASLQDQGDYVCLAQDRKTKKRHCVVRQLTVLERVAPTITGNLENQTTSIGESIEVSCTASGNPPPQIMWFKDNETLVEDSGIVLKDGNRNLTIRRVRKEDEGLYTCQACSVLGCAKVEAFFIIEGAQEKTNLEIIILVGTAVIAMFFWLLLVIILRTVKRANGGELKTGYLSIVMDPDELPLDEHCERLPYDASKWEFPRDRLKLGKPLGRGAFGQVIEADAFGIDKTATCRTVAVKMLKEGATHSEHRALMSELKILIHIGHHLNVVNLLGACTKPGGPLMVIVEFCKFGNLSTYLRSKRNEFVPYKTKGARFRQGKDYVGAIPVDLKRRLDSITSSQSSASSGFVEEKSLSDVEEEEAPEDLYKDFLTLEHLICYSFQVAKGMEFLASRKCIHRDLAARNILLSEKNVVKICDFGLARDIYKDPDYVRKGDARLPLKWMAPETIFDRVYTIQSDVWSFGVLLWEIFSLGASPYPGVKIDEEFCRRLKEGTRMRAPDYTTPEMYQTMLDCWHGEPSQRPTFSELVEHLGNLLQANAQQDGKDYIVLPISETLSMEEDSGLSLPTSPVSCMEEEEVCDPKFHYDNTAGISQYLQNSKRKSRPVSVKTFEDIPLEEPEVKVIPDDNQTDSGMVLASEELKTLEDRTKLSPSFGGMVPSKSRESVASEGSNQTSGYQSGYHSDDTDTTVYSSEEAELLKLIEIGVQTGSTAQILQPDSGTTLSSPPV
Fibroblast growth factor receptor 2 (Homo sapiens), sequence (P21802 22-821 limits assumed): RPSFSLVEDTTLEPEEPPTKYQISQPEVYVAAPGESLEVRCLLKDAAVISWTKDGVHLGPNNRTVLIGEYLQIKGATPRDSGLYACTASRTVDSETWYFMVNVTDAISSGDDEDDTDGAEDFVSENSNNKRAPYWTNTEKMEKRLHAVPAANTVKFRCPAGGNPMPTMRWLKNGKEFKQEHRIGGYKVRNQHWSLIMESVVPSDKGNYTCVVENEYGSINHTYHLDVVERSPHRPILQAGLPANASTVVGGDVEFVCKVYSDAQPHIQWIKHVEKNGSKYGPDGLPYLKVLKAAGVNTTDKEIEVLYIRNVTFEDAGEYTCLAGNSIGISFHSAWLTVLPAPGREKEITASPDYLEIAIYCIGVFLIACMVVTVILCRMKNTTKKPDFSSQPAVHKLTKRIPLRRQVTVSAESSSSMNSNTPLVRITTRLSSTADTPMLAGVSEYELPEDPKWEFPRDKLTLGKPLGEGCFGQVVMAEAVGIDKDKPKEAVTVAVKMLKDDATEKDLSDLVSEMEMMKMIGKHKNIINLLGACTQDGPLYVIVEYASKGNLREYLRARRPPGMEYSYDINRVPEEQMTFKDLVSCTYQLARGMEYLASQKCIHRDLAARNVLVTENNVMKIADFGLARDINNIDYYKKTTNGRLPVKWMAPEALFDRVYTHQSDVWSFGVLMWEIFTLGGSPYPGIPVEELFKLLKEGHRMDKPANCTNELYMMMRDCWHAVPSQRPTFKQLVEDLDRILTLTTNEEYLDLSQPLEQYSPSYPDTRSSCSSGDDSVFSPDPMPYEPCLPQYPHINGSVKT
Protein kinase C eta type (Homo sapiens), sequence (P24723 whole entry): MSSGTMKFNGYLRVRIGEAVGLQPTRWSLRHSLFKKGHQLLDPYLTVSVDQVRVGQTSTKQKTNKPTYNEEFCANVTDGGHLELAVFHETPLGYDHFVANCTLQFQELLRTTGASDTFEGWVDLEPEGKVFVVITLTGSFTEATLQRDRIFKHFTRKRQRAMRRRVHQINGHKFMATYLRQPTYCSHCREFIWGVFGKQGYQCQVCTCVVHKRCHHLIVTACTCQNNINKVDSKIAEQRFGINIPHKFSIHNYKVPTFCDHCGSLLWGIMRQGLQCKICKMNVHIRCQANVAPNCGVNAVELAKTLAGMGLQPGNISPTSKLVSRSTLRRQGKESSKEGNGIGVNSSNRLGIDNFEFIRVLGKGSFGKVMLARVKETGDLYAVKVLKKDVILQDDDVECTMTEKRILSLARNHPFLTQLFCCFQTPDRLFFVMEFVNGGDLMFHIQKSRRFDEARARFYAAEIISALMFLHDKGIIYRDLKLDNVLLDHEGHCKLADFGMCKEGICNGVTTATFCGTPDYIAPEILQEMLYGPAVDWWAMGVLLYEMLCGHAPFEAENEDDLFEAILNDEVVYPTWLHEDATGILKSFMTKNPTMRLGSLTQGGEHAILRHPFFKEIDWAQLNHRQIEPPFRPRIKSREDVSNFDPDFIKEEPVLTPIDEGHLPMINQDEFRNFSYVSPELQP
Serine/threonine-protein kinase PLK1 (Homo sapiens), sequence (P53350 whole entry): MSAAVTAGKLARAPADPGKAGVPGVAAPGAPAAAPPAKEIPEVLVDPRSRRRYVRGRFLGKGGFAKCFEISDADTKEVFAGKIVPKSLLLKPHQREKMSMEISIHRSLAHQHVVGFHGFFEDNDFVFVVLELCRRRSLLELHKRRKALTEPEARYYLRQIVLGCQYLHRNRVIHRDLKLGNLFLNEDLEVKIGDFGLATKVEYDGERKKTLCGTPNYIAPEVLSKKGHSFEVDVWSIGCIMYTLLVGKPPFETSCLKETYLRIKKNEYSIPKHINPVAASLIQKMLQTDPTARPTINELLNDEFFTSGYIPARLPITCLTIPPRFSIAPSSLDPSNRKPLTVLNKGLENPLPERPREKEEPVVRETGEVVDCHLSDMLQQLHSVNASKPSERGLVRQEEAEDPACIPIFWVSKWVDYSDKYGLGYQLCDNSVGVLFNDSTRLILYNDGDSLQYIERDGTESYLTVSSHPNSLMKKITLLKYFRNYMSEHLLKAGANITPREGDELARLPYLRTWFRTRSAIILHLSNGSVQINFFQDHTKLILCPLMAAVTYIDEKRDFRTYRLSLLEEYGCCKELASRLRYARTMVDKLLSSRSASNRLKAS

inhibition [1]: < 65% | inhibition [2]: < 65% | inhibition (Insulin receptor): < 65% | inhibition [3]: < 65% | inhibition [4]: < 65% | inhibition [5]: < 65% | inhibition [6]: < 65% | inhibition [7]: < 65% | inhibition [8]: 94% | inhibition [9]: < 65% | inhibition [10]: < 65% | half-life [11]: 0.6 h | AUC(0-t) [12]: 72 ng·h/mL | Vd [13]: 10.1 L/kg | clearance [14]: 217 mL/min/kg | Cmax [15]: 23 ng/mL | Tmax [16]: 1.8 h | AUC(0-t) [17]: 110 ng·h/mL | bioavailability [18]: 24% | half-life [19]: 0.9 h | AUC(0-t) [20]: 2930 ng·h/mL | Vd [21]: 0.4 L/kg | clearance [22]: 5.6 mL/min/kg | Cmax [23]: 2880 ng/mL | Tmax [24]: 1 h | half-life [25]: 1 h | AUC(0-t) [26]: 8200 ng·h/mL | bioavailability [27]: 28% | concentration at 2 h [36]: 2740 ng/mL | concentration at 6 h [37]: 3680 ng/mL | concentration at 12 h [38]: 2650 ng/mL | concentration at 2 h [39]: 695 ng/g | concentration at 6 h [40]: 602 ng/g | concentration at 12 h [41]: 279 ng/g | inhibition [42]: < 65% | inhibition [43]: < 65% | inhibition [44]: < 65% | inhibition [45]: < 65% | inhibition [46]: 74% | inhibition [47]: < 65%
Structure (SMILES): COCCN1CCc2cc(Nc3ncc(Cl)c(N[C@@H]4CCCC[C@H]4NS(C)(=O)=O)n3)c(OC)cc2CC1
inhibition in vivo at 30 mg/kg (Mus musculus [28]): 75% | inhibition (Mus musculus [29]): inactive | inhibition in vivo at 30 mg/kg (KARPAS-299 [30]): 45% | inhibition in vivo at 55 mg/kg (KARPAS-299 [31]): 54% | Activity (Mus musculus [32]): Non-toxic | Activity (Mus musculus [33]): Non-toxic | Activity (Mus musculus [34]): Non-toxic | Activity (Mus musculus [35]): Non-toxic

inhibition [1]: 99% | inhibition [2]: 73% | inhibition (Insulin receptor): 70% | inhibition [3]: 97% | inhibition [4]: 98% | inhibition [5]: 96% | inhibition [6]: < 65% | inhibition [7]: < 65% | inhibition [8]: 96% | inhibition [9]: 79% | inhibition [10]: < 65% | inhibition [42]: < 65% | inhibition [43]: < 65% | inhibition [44]: < 65% | inhibition [45]: 98% | inhibition [46]: 98% | inhibition [47]: 100%
Structure (SMILES): COCCN1CCc2cc(Nc3ncc(Cl)c(N[C@@H]4CCCC[C@H]4N(C)S(C)(=O)=O)n3)c(OC)cc2CC1
